In US6683076B2, “Methods for therapeutic use of glucosylceramide synthesis inhibitors and composition thereof” (Oxford Glyco-Sciences (UK) Ltd, priority 2000, dated 2004):
Marks after values point to notes of the source that are not given here.

Experiments:
NPC^−/− mice = assay: Mouse model of NPC: symptoms and survival; assay type: in vivo
Source text: Colonies of mutant mice expressing the NPC phenotype have been described (Pentchev et al., 1984, Miyawaki et al., 1986; Kitagawa, 1987), and has been validated by a number of criteria as an authentic model of the disease (Akaboshi et al., 1997). NPC mice display clinical signs of the disease around 6-8 weeks of age with mild intention tremor and ataxia. […] Death results by 10-12 weeks.
Breeding pairs of mice heterozygous for the mutation causing NPC were used to produce offspring that are NPC^−/− homozygotes. These animals, along with their normal wildtype littermates, were used in the following NB-DNJ drug study. Where indicated, NB-DNJ was administered daily by mixing with ground mouse chow. Mice were PCR genotyped 2-3 weeks of age to determine their genetic background.
[…] NPC^−/− mice, with ages ranging from 3-7 weeks, were entered into a treatment study. Seven were treated with 1200 mg/kg/day and six were untreated. […] By 10 weeks of age, all six untreated NPC^−/− mice died or were sacrificed according to veterinary animal care requirements. In contrast, 4 of 7 NPC^−/− mice treated with NB-DNJ lived into their twelfth week. […] In this experiment, untreated NPC^−/− mice survived 65±1 days (average ±SE; n=6), while NPC^−/− mice treated with NB-DNJ at 1200 mg/kg/day survived 88±4 days (n=7).

[1] = tested on: domestic cat model of Niemann-Pick C; assay: Feline model of NPC: neurologic and clinical findings; assay type: in vivo; set-up: Front leg Hopping / Rear leg hopping / Vision-Menace: scale not given here; details: for Ataxia / Front leg Hopping / Intention tremors / Rear leg hopping / Vision-Menace: NPC-affected cat S222, NB-DNJ treated
Protocol: A breeding colony for this animal model of NPC is being maintained to study the disease and its potential treatments (Brown et al (1996) J. Inherit Metab. Dis. 19:319-330).
From seven feline NPC carrier litter mates, normal and NPC-affected male and female cats were selected for the study. The affected female and unaffected male began treatment with NB-DNJ at 1200 mg/kg/day. […] During a brief recovery period for these animals, an unrelated normal cat was treated to determine the maximum tolerated dose for NB-DNJ in this species. Based on this dose-ranging work, the NPC-affected and unaffected litter mates were restarted with NB-DNJ at 50 mg/kg/day. Over the following weeks, the administration level was increased to 150 mg/kg/day. […] Except for brief intervals when the treatments were withheld because of transient appetite loss, the NB-DNJ dosages were continued for about three months. On this date, the animals were sacrificed for histologic and lipid analyses.
Cat number: S222; Status: NPC-affected, NB-DNJ-treated; […]; […]. […] […] also was noted to have bilateral luxating patellas at about the same time. […] Over the course of the next 20 weeks, her disease symptoms slowly worsened. However, on several occasions it was noted by the consulting neurologist that her symptoms were less severe than those of S221. […] The following is a tabulation of her neurologic and medical findings:

How did the “Symptoms of neurologic degeneration typical for NPC” value (NPC^−/− mice; NPC mice, 1200 mg/kg/day) turn out when `CCCCN1C[C@H](O)[C@@H](O)[C@H](O)[C@H]1CO` [NB-DNJ, N-butyldeoxynojirimycin] was run?
Its value is “qualitatively delaying”.

What about the Increase in longevity (NPC^−/− mice; NPC mice, 1200 mg/kg/day versus untreated) of the same compound?
The Increase in longevity was 26%.

And the “Mice displaying symptoms of neurologic effects” value (NPC^−/− mice; NPC^−/− mice, 1200 mg/kg/day in chow, by 8 weeks of age, untreated 5 out of 6)?
Its value is “none”.

And the “Mice displaying any degree of symptoms” value (NPC^−/− mice; NPC^−/− mice, 1200 mg/kg/day, by 9 weeks of age, untreated all six)?
Its value is 4 of 7.

What about the “Survival (average ±SE)” value (NPC^−/− mice; NPC^−/− mice, 1200 mg/kg/day, n=7, untreated 65±1 days) of the same compound?
Its value is 88 ± 4 days.

What about the “Surviving mice displaying some degree of NPC-induced neural degeneration” value (NPC^−/− mice; NPC^−/− mice, 1200 mg/kg/day, twelfth week) of the same compound?
The value was “Three of these four”.

And the “Mice that lived into their twelfth week” value (NPC^−/− mice; NPC^−/− mice, 1200 mg/kg/day, all untreated dead by 10 weeks)?
Its value is 4 of 7.

And the “Severity of disease symptoms versus untreated NPC cat S221” value ([1]; NPC-affected cat S222, 100 mg/kg/day, noted by consulting neurologist)?
The value was “less severe”.

What about the Ataxia ([1]; Week 6.5) of the same compound?
The Ataxia was “none”.

And the “Front leg Hopping” value ([1]; Week 6.5)?
The value was 2.

And the Intention tremors ([1]; Week 6.5)?
Its Intention tremors is “none”.

What about the Rear leg hopping ([1]; Week 6.5) of the same compound?
The Rear leg hopping was 2.

What about the Vision-Menace ([1]; Week 6.5) of the same compound?
The Vision-Menace was 2.

What about the Ataxia ([1]; Week 12.5) of the same compound?
The Ataxia was “none”.

And the “Front leg Hopping” value ([1]; Week 12.5)?
Its value is 2.

What about the Intention tremors ([1]; Week 12.5) of the same compound?
Its Intention tremors is “mild”.

And the Vision-Menace ([1]; Week 12.5)?
The Vision-Menace was 1.

What about the Rear leg hopping ([1]; Week 12.5, diagnosed with bilateral luxating patellas) of the same compound?
The Rear leg hopping was 2^†.

And the Ataxia ([1]; Week 16)?
The Ataxia was “none”.

And the “Front leg Hopping” value ([1]; Week 16)?
The value was 2.

And the Intention tremors ([1]; Week 16)?
The Intention tremors was “mild”.

What about the Rear leg hopping ([1]; Week 16) of the same compound?
Its Rear leg hopping is 2.

And the Vision-Menace ([1]; Week 16)?
The Vision-Menace was 1.

What about the Ataxia ([1]; Week 18.5) of the same compound?
The Ataxia was “none”.

What about the “Front leg Hopping” value ([1]; Week 18.5) of the same compound?
The value was 2.

And the Intention tremors ([1]; Week 18.5)?
The Intention tremors was “mild”.

And the Rear leg hopping ([1]; Week 18.5)?
Its Rear leg hopping is 1.5.

And the Vision-Menace ([1]; Week 18.5)?
Its Vision-Menace is 1.5.

And the Ataxia ([1]; Week 20.5)?
The Ataxia was “none”.

And the “Front leg Hopping” value ([1]; Week 20.5)?
Its value is 2.

What about the Intention tremors ([1]; Week 20.5) of the same compound?
The Intention tremors was “mod”.

And the Rear leg hopping ([1]; Week 20.5)?
Its Rear leg hopping is 2.

And the Vision-Menace ([1]; Week 20.5)?
Its Vision-Menace is “.5”.

What about the Ataxia ([1]; Week 22.5) of the same compound?
Its Ataxia is “none”.

What about the “Front leg Hopping” value ([1]; Week 22.5) of the same compound?
The value was 1.5.

What about the Intention tremors ([1]; Week 22.5) of the same compound?
The Intention tremors was “mild”.

And the Rear leg hopping ([1]; Week 22.5)?
The Rear leg hopping was 1.5.

And the Vision-Menace ([1]; Week 22.5)?
The Vision-Menace was 1.

What about the Ataxia ([1]; Week 24.5) of the same compound?
Its Ataxia is “none”.

And the “Front leg Hopping” value ([1]; Week 24.5)?
Its value is 2.

And the Intention tremors ([1]; Week 24.5)?
The Intention tremors was “mod”.

And the Rear leg hopping ([1]; Week 24.5)?
The Rear leg hopping was 2.

And the Vision-Menace ([1]; Week 24.5)?
Its Vision-Menace is 1.

And the Ataxia ([1]; Week 26.5)?
The Ataxia was “none”.

What about the “Front leg Hopping” value ([1]; Week 26.5) of the same compound?
The value was 2.

And the Intention tremors ([1]; Week 26.5)?
Its Intention tremors is “mild”.

What about the Rear leg hopping ([1]; Week 26.5) of the same compound?
The Rear leg hopping was 1.5.

And the Vision-Menace ([1]; Week 26.5)?
Its Vision-Menace is 1.

And the Ataxia ([1]; Week 29)?
Its Ataxia is “mod”.

What about the “Front leg Hopping” value ([1]; Week 29) of the same compound?
The value was 2.

And the Intention tremors ([1]; Week 29)?
The Intention tremors was “mod”.

And the Rear leg hopping ([1]; Week 29)?
Its Rear leg hopping is 1.

What about the Vision-Menace ([1]; Week 29) of the same compound?
The Vision-Menace was 1.

And the Ataxia ([1]; Week 30.5)?
The Ataxia was “mild”.

And the Intention tremors ([1]; Week 30.5)?
The Intention tremors was “mod”.

And the Vision-Menace ([1]; Week 30.5)?
Its Vision-Menace is 1.

And the Ataxia ([1]; Week 32.5)?
Its Ataxia is “mod”.

And the “Front leg Hopping” value ([1]; Week 32.5)?
Its value is 1.

And the Intention tremors ([1]; Week 32.5)?
The Intention tremors was “mod”.

And the Rear leg hopping ([1]; Week 32.5)?
The Rear leg hopping was 1.

And the Vision-Menace ([1]; Week 32.5)?
Its Vision-Menace is 0.5.

And the “Symptoms of neurologic degeneration typical for NPC” value ([1]; cats, NB-DNJ treatment)?
Its value is “qualitatively delays”.
